According to PubChem BioAssay AID1963977 (Molecular Pharmacology Branch, DTP, NCI, 2024):
Each block holds one molecule with its values, some of them ahead of it.

System: 624824-186-R-J3-PDC multicell spheroids, viability
Test: Anticancer human tumor 624824-186-R-J3-PDC patient-derived colon adenocarcinoma cell line growth inhibition [PI3K]
Details: for IC50: curve of first compound; for viability, T/C: stronger effect = lower value
Description: Combinatorial screen of targeted agents with the PI3K inhibitors inavolisib, alpelisib, duvelisib, and copanlisib in multi-cell type tumor spheroids
A high-throughput screen of multi-cell type tumor spheroids was designed to identify active combinations of targeted small molecules and PI3K pathway inhibitors. Complex spheroids include a stromal component modeled by human endothelial cells (HUVEC) and fibroblasts modeled by human mesenchymal stem cells (MSCs). The concentration ranges selected for each drug and investigational agent were based upon clinically achievable concentrations if the clinical Cmax of the agent was known.
Compounds. The drugs and investigational agents: inavolisib (NSC800729), alpelisib (NSC765974), duvelisib (NSC772469), copanlisib (NSC816437), ipatasertib (NSC767898), afuresertib (NSC778305), talazoparib (NSC767125), sapanisertib (NSC764658), selumetinib (NSC741078), tovorafenib (DAY101, NSC766906), vemurafenib (NSC761431), ravoxertinib (NSC781343), sotorasib (NSC818433), MRTX1133 (NSC 836407), abemaciclib (NSC 768073), palbociclib (NSC758247), venetoclax (NSC 766270), SY5609 (NSC837396), enzalutamide (NSC755605), and darolutamide (NSC825331), were obtained from the National Cancer Institute (NCI) Developmental Therapeutics Program Chemical Repository. The FDA-approved anticancer drug set is available from the NCI Developmental Therapeutics Program. […] The stock solutions were prepared in dimethyl sulfoxide (DMSO, Sigma-Aldrich, St. Louis, MO, cat. D2650) at 800-fold the tested concentration and stored at -70 degrees C prior to their use. All drugs and investigational agents were tested over a range starting from a high concentration at or near the clinical Cmax and decreasing in half-log increments. If the clinical Cmax for an agent had not been determined, the highest concentration tested was 10 microM.
Cell Culture. All cells were maintained in an incubator at 37 degrees C and 5% CO2 with 95% humidity. The PDC lines were cultured according to standard operating procedures established by the NCI PDMR (https://pdmr.cancer.gov/sops/default.htm). All PDCs were thawed and cultured in Matrigel-coated flasks prepared with a working solution of 1X Ham's F-12 nutrient mix, without supplementation (Invitrogen, Waltham, MA, cat. 11765054), 100 U/mL penicillin-streptomycin (Invitrogen, cat. 15140122), and 2.5% Matrigel (Corning Inc., Corning, NY, cat. 354248) for the first three passages. The 354836-022-R-J1-PDC, 475296-252-R-J1-PDC, and 997726-040-R-J2-PDC lines were cultured in 6A media, which includes advanced DMEM/F-12 (Thermo Fisher Scientific, cat. 12634028), 10 mM HEPES (Thermo Fisher Scientific, cat. 15630080), 1X GlutaMAX supplement (Thermo Fisher Scientific, cat. 35050061), 0.1 mg/mL primocin (InvivoGen, San Diego, CA, cat. ant-pm-2), 10% defined fetal bovine serum, heat inactivated (HyClone Laboratories Inc., Logan, UT, cat. SH30070.03HI), 50% L-WRN conditioned media (ATCC, cat. CRL-3276), 1.25 mM N-Acetyl-L-cysteine (Sigma-Aldrich, cat. A9165), 10 mM nicotinamide (Sigma-Aldrich, cat. N0636), 1X B-27 supplement (Thermo Fisher Scientific, cat. 17504044), 1X N-2 supplement (Thermo Fisher Scientific, cat. 17502048), and 10 microM Y-27632 dihydrochloride (Tocris Bioscience, Bristol, United Kingdom, cat. 1254). The 624824-186-R-J2-PDC line was cultured in 6C/Colon 1B media, which includes all 6A media components plus 50 ng/mL human EGF recombinant protein (Thermo Fisher Scientific, cat. PHG0311). […]

[1] = second compound 0.00316 µM, first compound 0.0316 µM
[2] = second compound 0.00316 µM, first compound 0.1 µM
[3] = second compound 0.00316 µM, first compound 0.316 µM
[4] = second compound 0.00316 µM, first compound 1 µM
[5] = second compound 0.00316 µM, first compound 3.16 µM
[6] = second compound 0.00316 µM, first compound 10 µM
[7] = second compound 0.01 µM, first compound 0.0316 µM
[8] = second compound 0.01 µM, first compound 0.1 µM
[9] = second compound 0.01 µM, first compound 0.316 µM
[10] = second compound 0.01 µM, first compound 1 µM
[11] = second compound 0.01 µM, first compound 3.16 µM
[12] = second compound 0.01 µM, first compound 10 µM
[13] = second compound 0.0316 µM, first compound 0.0316 µM
[14] = second compound 0.0316 µM, first compound 0.1 µM
[15] = second compound 0.0316 µM, first compound 0.316 µM
[16] = second compound 0.0316 µM, first compound 1 µM
[17] = second compound 0.0316 µM, first compound 3.16 µM
[18] = second compound 0.0316 µM, first compound 10 µM
[19] = second compound 0.1 µM, first compound 0.0316 µM
[20] = second compound 0.1 µM, first compound 0.1 µM
[21] = second compound 0.1 µM, first compound 0.316 µM
[22] = second compound 0.1 µM, first compound 1 µM
[23] = second compound 0.1 µM, first compound 3.16 µM
[24] = second compound 0.1 µM, first compound 10 µM
[25] = second compound 0.316 µM, first compound 0.0316 µM
[26] = second compound 0.316 µM, first compound 0.1 µM
[27] = second compound 0.316 µM, first compound 0.316 µM
[28] = second compound 0.316 µM, first compound 1 µM
[29] = second compound 0.316 µM, first compound 3.16 µM
[30] = second compound 0.316 µM, first compound 10 µM
[31] = second compound 1 µM, first compound 0.0316 µM
[32] = second compound 1 µM, first compound 0.1 µM
[33] = second compound 1 µM, first compound 0.316 µM
[34] = second compound 1 µM, first compound 1 µM
[35] = second compound 1 µM, first compound 3.16 µM
[36] = second compound 1 µM, first compound 10 µM
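Further: spheroids exposed to agents for seven days before luminescence read.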
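Wherever viability, T/C is given: luminescent signal used as a stand-in for spheroid viability; percent viability relative to DMSO vehicle control wells taken as 100%.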

IC50 (second compound 0.00316 µM): > 10 µM
IC50 (second compound 0.01 µM): > 10 µM
IC50 (second compound 0.0316 µM): > 10 µM
IC50 (second compound 0.1 µM): > 10 µM
IC50 (second compound 0.316 µM): > 10 µM
IC50 (second compound 1 µM): > 10 µM
SMILES: C#Cc1c(F)ccc2cc(O)cc(-c3ncc4c(N5CC6CCC(C5)N6)nc(OCC56CCCN5CC(F)C6)nc4c3F)c12 (stereo unspecified) + CC(Nc1ccc2c(c1)OCCn1cc(N3C(=O)OCC3C(F)F)nc1-2)C(N)=O
viability, T/C [1]: 106%
viability, T/C [2]: 108%
viability, T/C [3]: 100%
viability, T/C [4]: 108%
viability, T/C [5]: 104%
viability, T/C [6]: 122%
viability, T/C [7]: 109%
viability, T/C [8]: 89.9%
viability, T/C [9]: 97.1%
viability, T/C [10]: 108%
viability, T/C [11]: 103%
viability, T/C [12]: 101%
viability, T/C [13]: 109%
viability, T/C [14]: 105%
viability, T/C [15]: 107%
viability, T/C [16]: 103%
viability, T/C [17]: 107%
viability, T/C [18]: 106%
viability, T/C [19]: 105%
viability, T/C [20]: 101%
viability, T/C [21]: 108%
viability, T/C [22]: 109%
viability, T/C [23]: 111%
viability, T/C [24]: 103%
viability, T/C [25]: 95.9%
viability, T/C [26]: 99.7%
viability, T/C [27]: 103%
viability, T/C [28]: 98%
viability, T/C [29]: 104%
viability, T/C [30]: 108%
viability, T/C [31]: 93.9%
viability, T/C [32]: 83.2%
viability, T/C [33]: 94.3%
viability, T/C [34]: 88.3%
viability, T/C [35]: 88.8%
viability, T/C [36]: 99.2%

IC50 (second compound 0.00316 µM): > 10 µM
IC50 (second compound 0.01 µM): > 10 µM
IC50 (second compound 0.0316 µM): > 10 µM
IC50 (second compound 0.1 µM): > 10 µM
IC50 (second compound 0.316 µM): > 10 µM
IC50 (second compound 1 µM): > 10 µM
SMILES: CC(Cn1ccc(-c2ccc(C#N)c(Cl)c2)n1)NC(=O)c1cc(C(C)O)[nH]n1 (stereo unspecified) + CC(Nc1ccc2c(c1)OCCn1cc(N3C(=O)OCC3C(F)F)nc1-2)C(N)=O
viability, T/C [1]: 98.3%
viability, T/C [2]: 98.6%
viability, T/C [3]: 94.7%
viability, T/C [4]: 92.7%
viability, T/C [5]: 94.6%
viability, T/C [6]: 103%
viability, T/C [7]: 93%
viability, T/C [8]: 100%
viability, T/C [9]: 115%
viability, T/C [10]: 101%
viability, T/C [11]: 103%
viability, T/C [12]: 95.5%
viability, T/C [13]: 110%
viability, T/C [14]: 96.4%
viability, T/C [15]: 97.4%
viability, T/C [16]: 107%
viability, T/C [17]: 112%
viability, T/C [18]: 99%
viability, T/C [19]: 101%
viability, T/C [20]: 97.5%
viability, T/C [21]: 93.3%
viability, T/C [22]: 102%
viability, T/C [23]: 102%
viability, T/C [24]: 91%
viability, T/C [25]: 94.2%
viability, T/C [26]: 96%
viability, T/C [27]: 101%
viability, T/C [28]: 91.4%
viability, T/C [29]: 91.5%
viability, T/C [30]: 77.8%
viability, T/C [31]: 87.6%
viability, T/C [32]: 88.2%
viability, T/C [33]: 83.8%
viability, T/C [34]: 88.7%
viability, T/C [35]: 81.9%
viability, T/C [36]: 79.1%

IC50 (second compound 0.00316 µM): 5.18 µM
IC50 (second compound 0.01 µM): 5.16 µM
IC50 (second compound 0.0316 µM): 5.28 µM
IC50 (second compound 0.1 µM): 4.79 µM
IC50 (second compound 0.316 µM): 4.54 µM
IC50 (second compound 1 µM): 3.18 µM
SMILES: CC1(C)CCC(Nc2ncc(C(F)(F)F)c(-c3c[nH]c4c(P(C)(C)=O)c(C#N)ccc34)n2)CN1 (stereo unspecified) + CC(Nc1ccc2c(c1)OCCn1cc(N3C(=O)OCC3C(F)F)nc1-2)C(N)=O
viability, T/C [1]: 106%
viability, T/C [2]: 90.5%
viability, T/C [3]: 89.4%
viability, T/C [4]: 89.6%
viability, T/C [5]: 85.5%
viability, T/C [6]: 2.71%
viability, T/C [7]: 104%
viability, T/C [8]: 95.6%
viability, T/C [9]: 92.7%
viability, T/C [10]: 96.3%
viability, T/C [11]: 84.2%
viability, T/C [12]: 3.61%
viability, T/C [13]: 99.4%
viability, T/C [14]: 88.7%
viability, T/C [15]: 89.4%
viability, T/C [16]: 93.5%
viability, T/C [17]: 87.8%
viability, T/C [18]: 3.03%
viability, T/C [19]: 90%
viability, T/C [20]: 85.5%
viability, T/C [21]: 89.8%
viability, T/C [22]: 85.7%
viability, T/C [23]: 76.5%
viability, T/C [24]: 2.82%
viability, T/C [25]: 81.8%
viability, T/C [26]: 64.8%
viability, T/C [27]: 68.2%
viability, T/C [28]: 76.5%
viability, T/C [29]: 71.8%
viability, T/C [30]: 2.32%
viability, T/C [31]: 54.9%
viability, T/C [32]: 56.1%
viability, T/C [33]: 57%
viability, T/C [34]: 53.4%
viability, T/C [35]: 50.5%
viability, T/C [36]: 2.4%
